Laboratory results taken from patent US12617777B2, “GPR84 antagonists and uses thereof” (Liminal BioSciences Limited, priority 2021, dated 2026).
pIC50: −log10 of the molar value.

The molecules below were run against T1, human GPR84 receptor (Homo sapiens, UniProt Q9NQS5) (assay: Gαi biosensor BRET assay in HEK293 cells (antagonism of ZQ-16)). Settings: HEK293, single concentration 2 μM (designated A).
T1 construct: host or cells: HEK293, transient transfection
Assay type: cell-based
From the text: Background—The following assays can be used for determination of GPR84 activation in living HEK293 cells. The Gai BRET biosensor (Gagnon et al., 2018; Gales et al., 2006. Nat StructMol Biol. 13, 778-86; Saulieres et al., 2012. Nat Chem Biol. 8, 622-30) allows to directly monitor GPR84-mediated activation of Gai. The Gai biosensor consists of a Rluc8-tagged Gαi2 subunit, a GFP10-tagged Gγ2 subunit, and an untagged Gβ1. Agonist stimulation and GPR84 activation triggers a physical separation between the RLuc8-Gαi donor and the GFP10-Gγ2 acceptor, resulting in a decrease in BRET signal whose amplitude is correlated to ligand efficacy (Gales et al., 2006). Moreover, signaling functions of GPCRs are tightly regulated by endocytosis, the targeting of receptors to endosomes and their sorting to lysosomes or recycling to the plasma membrane. The early endosomes (EEs) trafficking assay (Namkung et al., 2016. Nat Commun. 7, 12178) uses Rluc8-tagged GPR84 and Renilla GFP (rGFP) attached to the FYVE domain from human endofin/zinc finger FYVE domain-containing protein 16, which binds phosphatidylinositol 3-phosphate in EEs. Agonist stimulation of GPR84-Rluc8 leads to trafficking of the receptor to EEs, and ensuing increase of the donor concentration relative to the rGFP-FYVE acceptor anchored in the same cellular compartment, and thus results in an increase in BRET signal.
Plasmids—The cDNA clones for human GPR84 receptor, human Gai2, Gp1, and Gy2 were obtained from the cDNA Resource Center (www.cdna.org). GFP10 (F64L, S147P, S202F and H231L variant of Aequorea victoria Green Fluorescent Protein) gBlocks gene fragments (Integrated DNA Technologies, IA) and linker were inserted in frame at the N-terminus of human Gγ2. Rluc8 (A55T, C124A, S130A, K136R, A143M, M185V, M253L, and S287L variant of the Renilla renformis luciferase) gBlocks gene fragment was inserted with linkers in frame in between residues 91 and 92 of Gai2 or at the C-terminus of GPR84. The FYVE domain from human endofin (residues Q739 to K806) attached in frame at the C terminus of a humanized Renilla GFP (rGFP), were synthesized as gBlocks gene fragments.
Bioluminescence Resonance Energy Transfer (BRET) Measurement—HEK293 cells were transfected with GPR84-Rluc8 and rGFP-FYVE for the EEs trafficking biosensor or with GPR84, Gαi2-Rluc8, GFP10-Gγ2, and Gβ1 for the Gαi biosensor. The following day, transiently transfected cells were seeded in 96-well white clear bottom microplates coated with poly-D-lysine and left in culture for 24 hours. Cells were washed once with Tyrode's buffer (140 mmol/L NaCl, 1 mmol/L CaCl2, 2.7 mmol/L KCl, 0.49 mmol/L MgCl2, 0.37 mmol/L NaH2PO4, 5.6 mmol/L glucose, 12 mmol/L NaHCO3, and 25 mmol/L HEPES, pH 7.5) before performing assays in Tyrode's buffer. Test compounds were incubated with cells for 5 (Gαi) or 15 (EEs) minutes at 37° C. before addition of 200 nmol/L of the GPR84 agonist ZQ-16 (2-(Hexylthio)-6-hydroxy-4(3H)-pyrimidinone) for 5 minutes at room temperature (Gαi) or 30 minutes at 37° C. (EEs). The Rluc8 substrate coelenterazine 400A (Prolume, Lakeside, AZ) was added at a final concentration of 5 μmol/L and BRET readings were collected using an Infinite M1000 microplate reader (Tecan, Morrisville, NC). BRET^2 readings between Rluc8 and GFP10 or rGFP were collected by sequential integration of the signals detected in the 370 to 450 nm (Rluc8) and 510 to 540 nm (GFP10, rGFP) windows. The BRET signal was calculated as the ratio of light emitted by acceptor (GFP10, rGFP) over the light emitted by donor (Rluc8). The values were corrected to net BRET by subtracting the background BRET signal obtained in cells transfected with Rluc8 constructs alone. Ligand-promoted net BRET values were calculated by subtracting vehicle-induced net BRET from ligand-induced net BRET.

T1 sequence (Q9NQS5 whole entry): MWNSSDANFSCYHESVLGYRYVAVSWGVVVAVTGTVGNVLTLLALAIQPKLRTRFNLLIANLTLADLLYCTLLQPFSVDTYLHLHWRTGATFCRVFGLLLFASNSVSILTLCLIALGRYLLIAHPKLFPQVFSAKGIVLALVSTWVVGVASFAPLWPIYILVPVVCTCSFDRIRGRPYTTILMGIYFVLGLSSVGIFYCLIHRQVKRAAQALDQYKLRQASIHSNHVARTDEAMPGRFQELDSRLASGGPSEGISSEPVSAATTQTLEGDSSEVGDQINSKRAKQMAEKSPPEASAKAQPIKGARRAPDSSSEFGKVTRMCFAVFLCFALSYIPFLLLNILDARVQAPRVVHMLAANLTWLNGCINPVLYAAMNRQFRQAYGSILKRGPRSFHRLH

inhibition at 2 µM [%]	SMILES
≤ 25	CC1(C)COC(Cn2cc(-c3ncc(C#CC4CC4)cc3CO)nn2)OC1 [Compound I-738]
> 75	CN(C)c1cc(N2CC(C)(CO)C2)c(F)cc1-c1cn(CC2CC(C)(C)CO2)nn1 (centres unmarked) [Compound I-710]
≤ 25	Cc1cc(C#CC2CC2)ccc1-c1cn(CC2CC(F)(F)CO2)nn1 (centres unmarked) [Compound I-489]
> 75	CN(C)c1cc(N2CCOCC2)ccc1-c1cn(CC2OCC(C)(C)CO2)nn1 [Compound I-863]

Same assay, conditions: HEK293, single concentration 10 μM (designated F)

SMILES	inhibition at 10 µM [%]
Cc1cc(N2CC(N(C)S(C)(=O)=O)C2)ccc1-c1cn(CC2CCCCO2)nn1 (centres unmarked) [Compound I-487]	≤ 25
Cc1cc(N2CCN(C(=O)c3ccccc3)CC2)ccc1-c1cn(CC2CCCCO2)nn1 (centres unmarked) [Compound I-236]	50 to 75
Cc1cc(N2CC(Nc3cnn(C)c3)C2)ccc1-c1cn(CC2CCCCO2)nn1 (centres unmarked) [Compound I-541]	25 to 50
Cc1cc(N2CCN(Cc3ccncc3)CC2)ccc1-c1cn(CC2CCCCO2)nn1 (centres unmarked) [Compound I-549]	50 to 75
CC#Cc1ccc(C)c(N(C)c2cn(CC3OCC4(CC4)CO3)nn2)c1 [Compound I-850]	> 75
Cc1cc(N2CC(C)(CO)C2)cnc1-c1cn(CCc2ncccn2)nn1 [Compound I-695]	≤ 25
CN(c1cccc(C#CC2CC2)c1)c1cn(CC2OCC(C)(C)CO2)nn1 [Compound I-824]	≤ 25
Cc1cc(N2CCN(Cc3ccccn3)CC2)cnc1-c1cn(CC2OCC(C)(C)CO2)nn1 [Compound I-597]	50 to 75
Cc1c(-c2ccc(C#CCNc3ccccc3)cc2)nnn1CC1CCCCO1 (centres unmarked) [Compound I-235]	25 to 50
COc1cc(-c2cn(C[C@H]3CCCCO3)nn2)c(C)cc1N1CC(C)(C)C1 [Compound I-422]	≤ 25
Cc1cc(C#CCNc2ccccc2)cnc1-c1cn(C[C@H]2CCCCO2)nn1 [Compound I-394]	> 75
Cc1cc(N2CC(C)(CN3CC(C)(C)C3)C2)ccc1-c1cn(CC2CCCCO2)nn1 (centres unmarked) [Compound I-660]	≤ 25
Cc1ccccc1-c1cn(CC2CCCCO2)nn1 (centres unmarked) [Compound I-467]	≤ 25
COCC#Cc1cnc(-c2cn(CC3OCC(C)(C)CO3)nn2)c(OCC(F)(F)F)c1 [Compound I-847]	≤ 25
Cc1cc(N2CC3(CCCN3c3ccccn3)C2)ccc1-c1cn(CC2CCCCO2)nn1 (centres unmarked) [Compound I-623]	50 to 75
CCc1cc(C#CC2CC2)cnc1-c1cn(CC2OCC(C)(C)O2)nn1 (centres unmarked) [Compound I-602]	≤ 25
Cc1cc(OC2CN3CCC2CC3)ccc1-c1cn(CC2CCCCO2)nn1 (centres unmarked) [Compound I-465]	≤ 25
CC(C)Oc1cc(N2CC(C)(C)C2)cnc1-c1cn(CC2OCC(C)(C)CO2)nn1 [Compound I-664]	> 75
Cc1cc(N2CCN(Cc3ccccn3)CC2=O)ccc1-c1cn(CC2OCC(C)(C)CO2)nn1 [Compound I-751]	25 to 50
Cc1cc(N2CC(C)(CO)C2)cnc1-c1cn(CC2OCC(C)(C)CO2)nn1 [Compound I-595]	> 75
Cc1cc(N2CCN(c3ccncc3)CC2)ccc1-c1cn(CC2CCCCO2)nn1 (centres unmarked) [Compound I-563]	≤ 25
CC1(C)CN(CC#Cc2cnc(-c3cn(C[C@H]4CCCCO4)nn3)c(CC(F)(F)F)c2)C1 [Compound I-818]	> 75
Cc1cc(C#CCN2CC(C)(C)C2)cnc1-c1nnnn1CC1OCC(C)(C)CO1 [Compound I-836]	50 to 75
Cc1ccc(C#CC2CC2)cc1-n1nc(CC2CC(F)(F)CCO2)oc1=O (centres unmarked) [Compound I-494, 3-(5-(cyclopropylethynyl)-2-methylphenyl)-5-((4,4-difluorotetrahydro-2H-pyran-2-yl)methyl)-1,3,4-oxadiazol-2(3H)-one]	> 75
Cc1cc(N2CC(NS(C)(=O)=O)C2)ccc1-c1cn(CC2CCCCO2)nn1 (centres unmarked) [Compound I-486]	≤ 25
Cc1cc(C#CCN)ccc1-c1cn(CC2OCC(C)(C)CO2)nn1 [Compound I-690]	25 to 50

Other lines, results leading:

inhibition at 10 µM [%]	SMILES
> 75	C=C(c1cn(C[C@H]2CCCCO2)nn1)c1cccc(C#CC2CC2)c1C [Compound I-742]
> 75	Cc1cc(N2CC(CO)C2)ccc1-c1cn(CC2CCCCO2)nn1 (centres unmarked) [Compound I-471]
50 to 75	Cc1cc(C#CC2CC2)cnc1-c1cn(CC2OCCCO2)nn1 [Compound I-414]
> 75	Cc1cc(C#CC2CC2)ccc1-c1cn(CC2CC(C)(C)CO2)nn1 (centres unmarked) [Compound I-226]
> 75	CCc1ccc(C#CC2CC2)cc1-n1nc(CC2CCCCO2)oc1=O (centres unmarked) [Compound I-20]
≤ 25	Cc1cc(N2CC3(CCNC3)C2)ccc1-c1cn(CC2CCCCO2)nn1 (centres unmarked) [Compound I-167]
≤ 25	C(#CC1CC1)c1ccc2c(c1)CCc1nnn(CC3CCCCO3)c1-2 (centres unmarked) [Compound I-305]
≤ 25	Cc1cc(C#CC2CC2)ccc1-c1cn(CC2OCCO2)nn1 [Compound I-457]
25 to 50	Cc1cc(N2CCCC(CO)C2)ccc1-c1cn(CC2CCCCO2)nn1 (centres unmarked) [Compound I-446]
≤ 25	COCC(=O)N1CCCCC1Cn1cc(-c2ccc(C#CC3CC3)cc2C)nn1 (centres unmarked) [Compound I-192]
25 to 50	FC(F)c1cc(C#CC2CC2)ccc1-c1cn(CC2CCCCO2)nn1 (centres unmarked) [Compound I-560]
≤ 25	Clc1cc(C#CC2CC2)cnc1-c1cn(C[C@H]2CCCCO2)nn1 [Compound I-823]
≤ 25	O=C(O)c1cc(C#CC2CC2)ccc1-c1cn(CC2CCCCO2)nn1 (centres unmarked) [Compound I-309]
≤ 25	COC(=O)c1cc(C#CC2CC2)ccc1-c1cn(CC2CCCCO2)nn1 (centres unmarked) [Compound I-214]
50 to 75	Cc1cc(N2CC(C(F)F)C2)ccc1-c1cn(CC2CCCCO2)nn1 (centres unmarked) [Compound I-520]
25 to 50	Cc1cc(C#CC2CC2)ccc1-c1cn(CC2CC(F)(F)CCO2)nn1 (centres unmarked) [Compound I-497]

Same assay, conditions: HEK293, single concentration 25 μM (designated I)

SMILES	inhibition at 25 µM [%]
c1ccc(COc2ccc(-c3cn(CC4CCCCO4)nn3)cc2)cc1 (centres unmarked) [Compound I-53]	≤ 25
Cc1ccc(-c2ccc(-c3nnn(CC4CCCCO4)n3)cc2)cn1 (centres unmarked) [Compound I-2]	≤ 25
C(#CC1CC1)c1ccc(-n2cc(CC3CCOCC3)nn2)cc1 [Compound I-294]	≤ 25

More lines, now with the values ahead:

inhibition at 25 µM [%]	SMILES
25 to 50	Cc1ncn(CC2CCCCO2)c1-c1ccc(C#CC2CC2)cc1 (centres unmarked) [Compound I-335]
25 to 50	C(#CC1CC1)c1cccc(-c2nnn(CC3CCCCO3)n2)c1 (centres unmarked) [Compound I-4]
≤ 25	Cc1c(-c2cccc(C#CC3CC3)c2)cnn1CC1CCCCO1 (centres unmarked) [Compound I-322]
≤ 25	C(#CC1CC1)c1ccc(-c2nnn(CC3CCCCO3)n2)cc1 (centres unmarked) [Compound I-1]
25 to 50	C(#CC1CC1)c1ccc(-c2nnnn2CC2CCCCO2)cc1 (centres unmarked) [Compound I-346]

Same assay, conditions: HEK293 cells, antagonism of 200 nmol/L ZQ-16

SMILES	pIC50
Cc1cc(N2CCN(C(=O)c3ccccc3)CC2)ccc1-c1cn(CC2CCCCO2)nn1 (centres unmarked) [Compound I-236]	5.52 to 6.00
Cc1cc(N2CCN(Cc3ccncc3)CC2)ccc1-c1cn(CC2CCCCO2)nn1 (centres unmarked) [Compound I-549]	5.52 to 6.00
CC(C)Oc1cc(N2CC(C)(C)C2)cnc1-c1cn(CC2OCC(C)(C)CO2)nn1 [Compound I-664]	≥ 6.52
CN(C)c1cc(N2CC(C)(CO)C2)c(F)cc1-c1cn(CC2CC(C)(C)CO2)nn1 (centres unmarked) [Compound I-710]	≥ 6.52

Further lines, results first:

pIC50	SMILES
≥ 6.52	C(#CC1CC1)c1cccc(-c2nnn(CC3CCCCO3)n2)c1 (centres unmarked) [Compound I-4]
5.52 to 6.00	Cc1cc(C#CC2CC2)ccc1-c1cn(CC2CC(C)(C)CO2)nn1 (centres unmarked) [Compound I-226]
< 5.52	Cc1cc(C#CC2CC2)ccc1-c1cn(CC2CCCO2)nn1 (centres unmarked) [Compound I-60]
< 5.52	C(#CC1CC1)c1ccc(-c2nnnn2CC2CCCCO2)cc1 (centres unmarked) [Compound I-346]
